For this assay, the target named is PD-1/PD-L1 (Homo sapiens, UniProt Q9NZQ7). Nature of the assay: TR-FRET PD-1/PD-L1 binding inhibition at the molecular level (free proteins). The note with it: Tag1-PD-L1 and Tag2-PD-1 proteins, twelve concentrations from 200 nM, 2 hours at room temperature, read-out: FRET assay (IC50). Put shortly:
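HTRF read-out at 665/620 nm after 2 h at room temperature. Detection used anti-Tag1 Eu cryptate plus anti-Tag2 XL665 antibodies. Tagged PD-L1 and PD-1 proteins were pre-mixed with compound across twelve […] 1:2 dilutions starting at 200 nM.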

A value given as a limit tells only on which side of the number the result lay.

Sequence of PD-1/PD-L1 (Q9NZQ7 19-238 limits assumed): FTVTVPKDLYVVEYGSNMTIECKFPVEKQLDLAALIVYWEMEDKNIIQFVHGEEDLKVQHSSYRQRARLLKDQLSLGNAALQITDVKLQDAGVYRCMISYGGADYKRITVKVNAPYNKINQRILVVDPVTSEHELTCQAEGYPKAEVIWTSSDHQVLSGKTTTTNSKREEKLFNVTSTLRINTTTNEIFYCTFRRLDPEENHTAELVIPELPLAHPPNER

Usually IC50 stands for the midpoint of a concentration-inhibition curve. With `O=C(Nc1cccc(-c2cccc(Nc3nc(C(F)F)nc4cc(CN5CC[C@@H](O)C5)cnc34)c2Cl)c1Cl)c1cc2n(n1)CCCC2NCCO` (stereo partly drawn) [Compound 141, N-(2,2'-dichloro-3'-((2-(difluoromethyl)-7-(((R)-3-hydroxypyrrolidin-1-yl)methyl)pyrido[3,2-d]pyrimidin-4-yl)amino)-[1,1'-biphenyl]-3-yl)-4-((2-hydroxyethyl)amino)-4,5,6,7-tetrahydropyrazolo[1,5-a]pyridine-2-carboxamide], the IC50 fell in the range of 10 to 100 nM.

Turning to `O=C(Nc1cccc(-c2cccc(Nc3nc(C(F)F)nc4cc(CN5CC[C@@H](O)C5)cnc34)c2Cl)c1Cl)c1cc2n(n1)CCCC2N1CC[C@@H](C(=O)O)C1` (stereo partly drawn) [Compound 142, (3R)-1-(2-((2,2'-dichloro-3'-((2-(difluoromethyl)-7-(((R)-3-hydroxypyrrolidin-1-yl)methyl)pyrido[3,2-d]pyrimidin-4-yl)amino)-[1,1'-biphenyl]-3-yl)carbamoyl)-4,5,6,7-tetrahydropyrazolo[1,5-a]pyridin-4-yl)pyrrolidine-3-carboxylic acid], the 50% inhibitory concentration (IC50) was < 10 nM.

Regarding `O=C(O)CNC1CCCn2nc(C(=O)Nc3cccc(-c4cccc(Nc5nc(C(F)F)nc6cc(CN7CC[C@@H](O)C7)cnc56)c4Cl)c3Cl)cc21` (stereo partly drawn) [Compound 143, 2-((2-((2,2'-dichloro-3'-((2-(difluoromethyl)-7-(((R)-3-hydroxypyrrolidin-1-yl)methyl)pyrido[3,2-d]pyrimidin-4-yl)amino)-[1,1'-biphenyl]-3-yl)carbamoyl)-4,5,6,7-tetrahydropyrazolo[1,5-a]pyridin-4-yl)amino)acetic acid], the IC50 was < 10 nM.

Consider `O=C(Nc1cccc(-c2cccc(Nc3nc(C(F)F)nc4cc(CN5CC[C@@H](O)C5)cnc34)c2Cl)c1Cl)c1cc2n(n1)CCCC2N1CCC(O)CC1` (stereo partly drawn) [Compound 144, N-(2,2'-dichloro-3'-((2-(difluoromethyl)-7-(((R)-3-hydroxypyrrolidin-1-yl)methyl)pyrido[3,2-d]pyrimidin-4-yl)amino)-[1,1'-biphenyl]-3-yl)-4-(4-hydroxypiperidin-1-yl)-4,5,6,7-tetrahydropyrazolo[1,5-a]pyridine-2-carboxamide], for which the IC50 is 10 to 100 nM.

Turning to `O=C(Nc1cccc(-c2cccc(Nc3nc(C(F)F)nc4cc(CN5CC[C@@H](O)C5)cnc34)c2Cl)c1Cl)c1cc2n(n1)CCCC2N1CCC(C(=O)O)CC1` (stereo partly drawn) [Compound 145, 1-(2-((2,2'-dichloro-3'-((2-(difluoromethyl)-7-({(R)-3-hydroxypyrrolidin-1-yl)methyl)pyrido[3,2-d]pyrimidin-4-yl)amino)-[1,1'-biphenyl]-3-yl)carbamoyl)-4,5,6,7-tetrahydropyrazolo[1,5-a]pyridin-4-yl)piperidine-4-carboxylic acid], the half-inhibitory concentration (IC50) is < 10 nM.

On to `CC(C)(NC1CCCn2nc(C(=O)Nc3cccc(-c4cccc(Nc5nc(C(F)F)nc6cc(CN7CC[C@@H](O)C7)cnc56)c4Cl)c3Cl)cc21)C(=O)O` (stereo partly drawn) [Compound 146, 2-((2-((2,2'-dichloro-3'-((2-(difluoromethyl)-7-(((R)-3-hydroxypyrrolidin-1-yl)methyl)pyrido[3,2-d]pyrimidin-4-yl)amino)-[1,1'-biphenyl]-3-yl)carbamoyl)-4,5,6,7-tetrahydropyrazolo[1,5-a]pyridin-4-yl)amino)-2-methylpropanoic acid], for which the half-maximal inhibitory concentration (IC50) was < 10 nM.

On to `Cc1c(NC(=O)c2cc3n(n2)CCCC3NCCO)cccc1-c1cccc(NC(=O)c2nc3c(s2)CN(C)CC3)c1C` (centres unmarked) [Compound 147, N-(3'-(4-((2-hydroxyethyl)amino)-4,5,6,7-tetrahydropyrazolo[1,5-a]pyridine-2-carboxamido)-2,2'-dimethyl-[1,1'-biphenyl]-3-yl)-5-methyl-4,5,6,7-tetrahydrothiazolo[5,4-c]pyridine-2-carboxamide], for which the concentration for half-maximal inhibition (IC50) is < 10 nM.

Consider `CC(=O)NCCNC1CCCn2nc(C(=O)Nc3cccc(-c4cccc(NC(=O)c5nc6c(s5)CN(C)CC6)c4C)c3C)cc21` (centres unmarked) [Compound 148, N-(3'-(4-((2-acetamidoethyl)amino)-4,5,6,7-tetrahydropyrazolo[1,5-a]pyridine-2-carboxamido)-2,2'-dimethyl-[1,1'-biphenyl]-3-yl)-5-methyl-4,5,6,7-tetrahydrothiazolo[5,4-c]pyridine-2-carboxamide], for which the IC50 was < 10 nM.

With `Cc1c(NC(=O)c2cc3n(n2)CCCC3NCC(=O)O)cccc1-c1cccc(NC(=O)c2nc3c(s2)CN(C)CC3)c1C` (centres unmarked) [Compound 149, 2-((2-((2,2'-dimethyl-3'-(5-methyl-4,5,6,7-tetrahydrothiazolo[5,4-c]pyridine-2-carboxamido)-[1,1'-biphenyl]-3-yl)carbamoyl)-4,5,6,7-tetrahydropyrazolo[1,5-a]pyridin-4-yl)amino)acetic acid], the IC50 is < 10 nM.

As for `Cc1c(NC(=O)c2cc3n(n2)CCCC3N2CC[C@@H](O)C2)cccc1-c1cccc(NC(=O)c2nc3c(s2)CN(C)CC3)c1C` (stereo partly drawn) [Compound 150, N-(3'-(4-((R)-3-hydroxypyrrolidin-1-yl)-4,5,6,7-tetrahydropyrazolo[1,5-a]pyridine-2-carboxamido)-2,2'-dimethyl-[1,1'-biphenyl]-3-yl)-5-methyl-4,5,6,7-tetrahydrothiazolo[5,4-c]pyridine-2-carboxamide], the IC50 was < 10 nM.

Turning to `O=C(Nc1cccc(-c2cccc(NC(=O)c3nc4c(s3)CN(CCF)CC4)c2Cl)c1Cl)c1cc2n(n1)CCCC2NCCO` (centres unmarked) [Compound 150-1, N-(2,2'-dichloro-3'-(4-((2-hydroxyethyl)amino)-4,5,6,7-tetrahydropyrazolo[1,5-a]pyridine-2-carboxamido)-[1,1'-biphenyl]-3-yl)-5-(2-fluoroethyl)-4,5,6,7-tetrahydrothiazolo[5,4-c]pyridine-2-carboxamide], the IC50 was < 10 nM.

For `O=C(O)CNC1CCCn2nc(C(=O)Nc3cccc(-c4cccc(NC(=O)c5nc6c(s5)CN(CCF)CC6)c4Cl)c3Cl)cc21` (centres unmarked) [Compound 150-2, 2-((2-((2,2'-dichloro-3'-(5-(2-fluoroethyl)-4,5,6,7-tetrahydrothiazolo[5,4-c]pyridine-2-carboxamido)-[1,1'-biphenyl]-3-yl)carbamoyl)-4,5,6,7-tetrahydropyrazolo[1,5-a]pyridin-4-yl)amino)acetic acid], the IC50 is < 10 nM.

As for `CC(=O)NCCNC1CCCn2nc(C(=O)Nc3cccc(-c4cccc(-c5nc6c(s5)CCN(C)C6)c4C)c3C)cc21` (centres unmarked) [Compound 152, 4-((2-acetamidoethyl)amino)-N-(2,2'-dimethyl-3'-(5-methyl-4,5,6,7-tetrahydrothiazolo[4,5-c]pyridin-2-yl)-[1,1'-biphenyl]-3-yl)-4,5,6,7-tetrahydropyrazolo[1,5-a]pyridine-2-carboxamide], the half-maximal inhibitory concentration (IC50) lay within 10 to 100 nM.

In the case of `Cc1c(NC(=O)c2cc3n(n2)CCCC3NCC(=O)O)cccc1-c1cccc(-c2nc3c(s2)CCN(C)C3)c1C` (centres unmarked) [Compound 153, 2-((2-((2,2'-dimethyl-3'-(5-methyl-4,5,6,7-tetrahydrothiazolo[4,5-c]pyridin-2-yl)-[1,1'-biphenyl]-3-yl)carbamoyl)-4,5,6,7-tetrahydropyrazolo[1,5-a]pyridin-4-yl)amino)acetic acid], the IC50 was < 10 nM.

`Cc1c(NC(=O)c2cc3n(n2)CCCC3N2CC[C@@H](O)C2)cccc1-c1cccc(-c2nc3c(s2)CCN(C)C3)c1C` (stereo partly drawn) [Compound 154, N-(2,2'-dimethyl-3'-(5-methyl-4,5,6,7-tetrahydrothiazolo[4,5-c]pyridin-2-yl)-[1,1'-biphenyl]-3-yl)-4-((R)-3-hydroxypyrrolidin-1-yl)-4,5,6,7-tetrahydropyrazolo[1,5-a]pyridine-2-carboxamide]: the IC50 fell in the range of 10 to 100 nM.

Take `Cc1c(-c2cc3n(n2)CCCC3N2CCC(O)C2)cccc1-c1cccc(-c2cc3n(n2)CCCC3N2CCC(O)C2)c1C` [Compound 156, (3R,3'R)-1,1'-(2,2'-(2,2'-dimethyl-[1,1'-biphenyl]-3,3'-diyl)bis(4,5,6,7-tetrahydropyrazolo[1,5-a]pyridine-4,2-diyl))bis(pyrrolidin-3-ol)]: the concentration for half-maximal inhibition (IC50) lay within 100 to 1000 nM.

In the case of `Cc1c(-c2cc3n(n2)CCCC3NCCO)cccc1-c1cccc(-c2cc3n(n2)CCCC3N2CC[C@@H](O)C2)c1C` (stereo partly drawn) [Compound 157, (3R)-1-(2-(3'-(4-((2-hydroxyethyl)amino)-4,5,6,7-tetrahydropyrazolo[1,5-a]pyridin-2-yl)-2,2'-dimethyl-[1,1'-biphenyl]-3-yl)-4,5,6,7-tetrahydropyrazolo[1,5-a]pyridin-4-yl)pyrrolidin-3-ol], the concentration for half-maximal inhibition (IC50) was > 1000 nM.

Take `Cc1c(NC(=O)c2cc3n(n2)CCCC3NCCO)cccc1-c1cccc(-c2cc3n(n2)CCCC3NCCO)c1C` (centres unmarked) [Compound 158, 4-((2-hydroxyethyl)amino)-N-(3'-(4-((2-hydroxyethyl)amino)-4,5,6,7-tetrahydropyrazolo[1,5-a]pyridin-2-yl)-2,2'-dimethyl-[1,1'-biphenyl]-3-yl)-4,5,6,7-tetrahydropyrazolo[1,5-a]pyridine-2-carboxamide]: the IC50 fell in the range of 10 to 100 nM.

For the molecule `Cc1c(NC(=O)c2cc3n(n2)CCCC3NCCO)cccc1-c1cccc(-c2cc3n(n2)CCCC3N2CC[C@@H](O)C2)c1C` (stereo partly drawn) [Compound 159, 4-((2-hydroxyethyl)amino)-N-(3'-(4-((R)-3-hydroxypyrrolidin-1-yl)-4,5,6,7-tetrahydropyrazolo[1,5-a]pyridin-2-yl)-2,2'-dimethyl-[1,1'-biphenyl]-3-yl)-4,5,6,7-tetrahydropyrazolo[1,5-a]pyridine-2-carboxamide], the half-inhibitory concentration (IC50) lay in the range of 10 to 100 nM.

Consider `Cc1c(NC(=O)c2cc3n(n2)CCCC3N2CC[C@@H](O)C2)cccc1-c1cccc(-c2cc3n(n2)CCCC3NCCO)c1C` (stereo partly drawn) [Compound 160, N-(3'-(4-((2-hydroxyethyl)amino)-4,5,6,7-tetrahydropyrazolo[1,5-a]pyridin-2-yl)-2,2'-dimethyl-[1,1'-biphenyl]-3-yl)-4-((R)-3-hydroxypyrrolidin-1-yl)-4,5,6,7-tetrahydropyrazolo[1,5-a]pyridine-2-carboxamide], for which the IC50 is 10 to 100 nM.

These data come from patent EP4755888A1 (ILAb Co., Ltd., priority 2023, dated 2025).
